In patent publication US20120046261A1, “COMPOSITIONS AND METHODS FOR DIAGNOSING AND PREVENTING SPONTANEOUS PRETERM BIRTH” (UNIVERSITY OF UTAH RESEARCH FOUNDATION, priority 2009, published 2012):
Entries after “also recorded” stand apart in the source; their conditions may differ.

System: women with prior spontaneous preterm birth
Test: Multicenter, prospective, double-blind study of 17P vs. placebo for prevention of recurrent SPTB, secondary analysis by hPR genotype
Assay type: in vivo, human
Experimental: The goal of this study was to assess if women with single nucleotide polymorphisms (SNPs) in the human progesterone receptor (hPR) are more or less likely to respond to 17P for the prevention of recurrent SPTB. This study involved secondary analysis of 463 women enrolled in a multicenter, prospective, double-blind study of 17P vs. placebo for the prevention of recurrent SPTB.
Of 463 patients randomized in the original study, 459 were analyzed. Two thirds of women were randomized to 17P and one third were randomized to placebo. Of those patients who received 17P, 111, or 36%, delivered preterm less than 37 weeks, and 195, or 64%, delivered at term. Among those patients who received placebo, the preterm birth rate was higher, as 55% of women delivered preterm. During summer 2008, DNA was extracted from stored saliva samples. […]
20 SNPs in the hPR gene were selected to encompass the large progesterone receptor haplotype block. The 389 individuals with DNA available were then genotyped using TaqMan chemistry with established primers. Allele and genotype frequencies were calculated and evaluated for evidence of genetic predisposition to 17P response. Women were stratified by self-reported race. Primary outcomes evaluated were preterm birth<37 and <32 weeks
Regression was used to assess for an interaction between genotype, treatment, and clinical outcomes. Models controlled for number of prior spontaneous preterm births, smoking, and pre-pregnancy body mass index.
Dominant and recessive models of inheritance were used in this study (see Table 2 above). The dominant model assumes that having at least one copy of the minor allele is sufficient for disease. Patients homozygous for the minor allele and heterozygous patients with one minor allele are grouped together; here “little a/little a” and “Big A/little a” are compared with those homozygous for the major allele, “Big A/Big A.” The recessive model assumes that two copies of the minor allele are needed for disease. Here, those patients who are homozygous for the minor allele “little a/little a” are compared against the others.
Outcomes were available on 459 of the original 463 patients enrolled in the study. The study population of 389 patients was representative of the original cohort (see Table 3 below). The majority of patients in the cohort were African-American. Two-thirds of patients in the cohort received 17P. Furthermore, a similar proportion of patients delivered preterm less than 37 weeks and very preterm, less than 32 weeks, in the cohort when compared to the original study. Additionally, 21.1% of patients smoked during pregnancy. All patients had at least one prior spontaneous preterm birth in order to qualify for the original study. 28% of patients had 2 or more prior spontaneous preterm deliveries. The average pre-pregnancy body mass index was 26.7 kilograms per meter squared.

[1] = all patients who received 17P, original study cohort (459 analyzed)

## CCCCCC(=O)O[C@]1(C(C)=O)CC[C@H]2[C@@H]3CCC4=CC(=O)CC[C@]4(C)[C@H]3CC[C@@]21C [17P, 17 alpha-hydroxyprogesterone caproate]
African Americans, rs471767 AA genotype (homozygous major allele), receiving 17P, placebo nearly 60%
  percentage of patients delivering preterm <37 weeks: 21%
African Americans, rs471767 at least one minor allele (G; AG and GG), receiving 17P
  percentage of patients delivering preterm <37 weeks: under 40%
African Americans, rs578029 at least one major allele (T), receiving 17P, placebo approximately 55%
  rate of prematurity (SPTB): 25%
African Americans, rs578029 homozygous for the minor allele (A)
  reduction in preterm birth rates with 17P: no reduction
[1]
  patients who delivered at term: 64%
  patients who delivered preterm less than 37 weeks: 36%
non-African American (Caucasian/Hispanic), rs666553 at least one minor allele (T), receiving 17P, placebo 26.7%
  rate of preterm birth <32 weeks gestation: 3.4%
non-African American (Caucasian/Hispanic), rs666553 homozygous for the major allele
  reduction in prematurity (<32 weeks) with 17P: do not experience any reduction; also recorded: did not experience any reduction
non-African American, rs503362 at least one minor allele (C), receiving 17P, placebo 17.4%
  rate of preterm birth <32 weeks gestation: 2.6%
non-African American, rs503362 homozygous for the major allele (G)
  reduction in the rate of prematurity (<32 weeks) when receiving 17P: did not have a reduction
